Results from ChEMBL document CHEMBL1152860, “Synthesis and antiproliferative activity of 3-amino-N-phenyl-1H-indazole-1-carboxamides” (2009).
Active and inactive are the calls of the source. No cut-off for these calls is given here.

How the values were obtained:
NCI-H226 = assay: Growth inhibition of human NCI-H226 cells after 48 hrs by SRB assay; format: functional; conditions: NCI-H226, 48 h
MDA-MB-435 = assay: Growth inhibition of human MDA-MB-435 cells after 48 hrs by SRB assay; format: functional; conditions: MDA-MB-435, 48 h
HCT-15 = assay: Growth inhibition of human HCT15 cells after 48 hrs by SRB assay; format: functional; conditions: HCT-15, 48 h
K562 [1] = assay: Cell cycle arrest in human K562 cells assessed as decrease in accumulation at G2/M phase at 1.2 uM after 24 hrs using propidium iodide staining by flow cytometry; format: functional, cell-based
[2] = Growth inhibition of human Hs 578T cells after 48 hrs by SRB assay; format: functional
SK-MEL-2 = assay: Growth inhibition of human SK-MEL-2 cells after 48 hrs by SRB assay; format: functional; conditions: SK-MEL-2, 48 h
SF-268 = assay: Growth inhibition of human SF268 cells after 48 hrs by SRB assay; format: functional; conditions: SF-268, 48 h
ACHN = assay: Growth inhibition of human ACHN cells after 48 hrs by SRB assay; format: functional
K562 [3] = assay: Cell cycle arrest in human K562 cells assessed as decrease in accumulation at S phase at 1.2 uM after 24 hrs using propidium iodide staining by flow cytometry; format: functional, cell-based
KM12 = assay: Growth inhibition of human KM12 cells after 48 hrs by SRB assay; format: functional; conditions: KM12, 48 h
HT-29 = assay: Growth inhibition of human HT-29 cells after 48 hrs by SRB assay; format: functional; conditions: HT-29, 48 h
K562 [4] = assay: Cell cycle arrest in human K562 cells assessed as accumulation at G0/G1 phase at 1.2 uM after 24 hrs using propidium iodide staining by flow cytometry; format: functional, cell-based
K562 [5] = assay: Decrease in total phosphorylated retinoblastoma protein level in human K562 cells at 14 uM after 24 hrs by flow cytometry; format: functional, cell-based
UACC-62 = assay: Growth inhibition of human UACC62 cells after 48 hrs by SRB assay; format: functional; conditions: UACC-62, 48 h
DU-145 = assay: Growth inhibition of human DU145 cells after 48 hrs by SRB assay; format: functional; conditions: DU-145, 48 h
786-0 = assay: Growth inhibition of human 786-0 cells after 48 hrs by SRB assay; format: functional; conditions: 786-0, 48 h
HCC 2998 = assay: Growth inhibition of human HCC2998 cells after 48 hrs by SRB assay; format: functional; conditions: HCC 2998, 48 h
K562 [6] = assay: Cell cycle arrest in human K562 cells assessed as decrease in accumulation at G2/M phase at 15.9 uM after 24 hrs using propidium iodide staining by flow cytometry; format: functional, cell-based
K562 [7] = assay: Decrease in total phosphorylated retinoblastoma protein level in human K562 cells at 34 uM after 24 hrs by flow cytometry; format: functional, cell-based
K562 [8] = assay: Cell cycle arrest in human K562 cells assessed as accumulation at G0/G1 phase at 15.9 uM after 24 hrs using propidium iodide staining by flow cytometry; format: functional, cell-based
K562 [9] = assay: Cell cycle arrest in human K562 cells assessed as decrease in accumulation at S phase at 15.9 uM after 24 hrs using propidium iodide staining by flow cytometry; format: functional, cell-based
CCRF-CEM = assay: Growth inhibition of human CCRF-CEM cells after 48 hrs by SRB assay; format: functional
[10] = read-out: LC50 (the source's name)

Question: Which GI50 (NCI-H226) does the source give for Nc1nn(C(=O)Nc2ccc(Cc3ccccc3)cc2)c2ccccc12 here?
Answer: 13.5 µM

Question: And the GI50 (MDA-MB-435)?
Answer: 2.82 µM

Question: And the TGI (MDA-MB-435)?
Answer: > 100 µM

Question: And the CC50 (MDA-MB-435; [10])?
Answer: > 100 µM

Question: What about the GI50 (HCT-15) of the same compound?
Answer: 1.08 µM

Question: What about the TGI (HCT-15) of the same compound?
Answer: > 100 µM

Question: What about the CC50 (HCT-15; [10]) of the same compound?
Answer: > 100 µM

Question: And the Activity (K562 [1])?
Answer: Active

Question: What about the GI50 [2] of the same compound?
Answer: 17.2 µM

Question: What about the GI50 (SK-MEL-2) of the same compound?
Answer: 36.4 µM

Question: And the GI50 (SF-268)?
Answer: 4.66 µM

Question: And the GI50 (ACHN)?
Answer: 1.69 µM

Question: And the TGI (ACHN)?
Answer: 33.4 µM

Question: What about the CC50 (ACHN; [10]) of the same compound?
Answer: > 100 µM

Question: And the Activity (K562 [3])?
Answer: Active

Question: And the GI50 (KM12)?
Answer: 2.94 µM

Question: What about the TGI (KM12) of the same compound?
Answer: > 100 µM

Question: And the CC50 (KM12; [10])?
Answer: > 100 µM

Question: What about the GI50 (HT-29) of the same compound?
Answer: 2.39 µM

Question: And the TGI (HT-29)?
Answer: 17.6 µM

Question: And the CC50 (HT-29; [10])?
Answer: 56.3 µM

Question: And the Activity (K562 [4])?
Answer: Active

Question: What about the Activity (K562 [5]) of the same compound?
Answer: Active

Question: And the GI50 (UACC-62)?
Answer: 0.353 µM

Question: And the TGI (UACC-62)?
Answer: > 100 µM

Question: What about the CC50 (UACC-62; [10]) of the same compound?
Answer: > 100 µM

Question: What about the GI50 (DU-145) of the same compound?
Answer: 1.02 µM

Question: What about the TGI (DU-145) of the same compound?
Answer: 28.3 µM

Question: What about the CC50 (DU-145; [10]) of the same compound?
Answer: > 100 µM

Question: What about the GI50 (786-0) of the same compound?
Answer: 3.76 µM

Question: What about the GI50 (HCC 2998) of the same compound?
Answer: 4.27 µM

Question: With CCCCOc1ccc(NC(=O)n2nc(N)c3ccccc32)cc1 as the compound, how does the GI50 (NCI-H226) read?
Answer: 21.2 µM

Question: What about the Activity (K562 [6]) of the same compound?
Answer: Active

Question: And the GI50 (MDA-MB-435)?
Answer: 19.1 µM

Question: And the GI50 (HCT-15)?
Answer: 15.5 µM

Question: What about the GI50 [2] of the same compound?
Answer: 20.2 µM

Question: And the GI50 (SF-268)?
Answer: 25.8 µM

Question: What about the GI50 (ACHN) of the same compound?
Answer: 22.8 µM

Question: What about the Activity (K562 [7]) of the same compound?
Answer: Active

Question: And the Activity (K562 [8])?
Answer: Active

Question: And the Activity (K562 [9])?
Answer: Active

Question: What about the GI50 (KM12) of the same compound?
Answer: 11.3 µM

Question: And the GI50 (HT-29)?
Answer: 13.5 µM

Question: And the GI50 (UACC-62)?
Answer: 14.7 µM

Question: And the GI50 (DU-145)?
Answer: 25 µM

Question: What about the GI50 (786-0) of the same compound?
Answer: 21 µM

Question: What about the GI50 (CCRF-CEM) of the same compound?
Answer: 0.213 µM

Question: What about the LC50 (CCRF-CEM) of the same compound?
Answer: > 100 µM

Question: What about the TGI (CCRF-CEM) of the same compound?
Answer: 17.5 µM

Question: And the GI50 (HCC 2998)?
Answer: 19 µM
